System: P-Y1068-EGFR
Experiment: Western blot analysis of P-Y1068-EGFR in EGF-stimulated HCT15 cells treated with DGK inhibitor
Format: cell-based, human
Settings: versus DMSO control, pre-incubated 30 min
Experimental: Cells were plated in 6 or 10 cm dishes and starved for 2 h at 37 C in PBS. After resting, cells were EGF-stimulated for different time 3, 10 or 30 min. Cells were lysed with ice-cold 2% NP40 supplemented with protease and phosphatase inhibitors [10 mM sodium fluoride, 2 mM sodium orthovanadate, 0.5 mM EDTA, 2 mM phenyl-methylsulfonyl fluoride, 1 mM sodium molybdate, aprotonin (10 mg/ml), leupeptin (10 mg/ml), pepstatin (1 mg/ml)]. After 30 min on ice, lysates were centrifuged and supernatant were mix with 2× sample buffer. Protein lysates were separated on acrylamide gel 10%, transferred on PVDF membrane and incubated with primary antibodies of interest. Inhibitors such as Rottlerin (20 μM) and DGK were pre-incubated for 30 min before stimulation. Western blots were visualized with enhanced chemo-luminescence and imaging on a Fuji LAS 4000 image station (GE Healthcare). The protein bands in Western blots were quantified with Multi Gauge software, and densitometry (pixel intensity) was determined within the linear range of the exposure. Amounts of the proteins of interest were typically presented as a ratio of the indicated loading control. Values were then normalized to an indicated sample and noted as a fold difference. Results represent at least three independent experiments.

## O=c1c2ccccc2[nH]c(=S)n1CCN1CCC(=C(c2ccc(F)cc2)c2ccc(F)cc2)CC1 [R59949]
  P-Y1068-EGFR levels: decreased levels
